Results: ChEMBL document CHEMBL1201862, “PubChem BioAssay data set” (2004)
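Cultured in 96-well plates, cells were exposed to test compound for 48 hours across five concentrations. Here, GI50 denotes the concentration required for 50% inhibition of growth.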 Active and inactive are the calls of the source. No stated cut-off is given here; in the data, active = GI50 up to about 1.1 µM and inactive = higher.

Tests used:
Assay in all cases: growth of human tumour cells (NCI), 48 h
SF-295 = tested on: SF-295
TK-10 = tested on: TK-10
KM12 = tested on: KM12
786-0 = tested on: 786-0
SK-MEL-5 = tested on: SK-MEL-5
MDA-N = tested on: MDA-N
EKVX = tested on: EKVX
SW-620 = tested on: SW-620
HCT-116 = tested on: HCT-116
NCI-H23 = tested on: NCI-H23
U-251 = tested on: U-251
NCI-H226 = tested on: NCI-H226
SNB-19 = tested on: SNB-19
HL-60 = tested on: HL-60
OVCAR-3 = tested on: OVCAR-3
HCT-15 = tested on: HCT-15
COLO 205 = tested on: COLO 205
OVCAR-5 = tested on: OVCAR-5
RXF 393 = tested on: RXF 393
NCI-H522 = tested on: NCI-H522
PC-3 = tested on: PC-3
NCI/ADR-RES = tested on: NCI/ADR-RES
UACC-257 = tested on: UACC-257
A549 = tested on: A549
HCC 2998 = tested on: HCC 2998
HOP-92 = tested on: HOP-92
Malme-3M = tested on: Malme-3M
UACC-62 = tested on: UACC-62
SK-MEL-28 = tested on: SK-MEL-28
SK-MEL-2 = tested on: SK-MEL-2
CCRF-CEM = tested on: CCRF-CEM
OVCAR-8 = tested on: OVCAR-8
ACHN = tested on: ACHN
MCF7 = tested on: MCF7
SN12C = tested on: SN12C
NCI-H460 = tested on: NCI-H460
K562 = tested on: K562
BT-549 = tested on: BT-549
UO-31 = tested on: UO-31
HT-29 = tested on: HT-29
CAKI-1 = tested on: CAKI-1
SR = tested on: SR
SF-268 = tested on: SF-268
IGROV-1 = tested on: IGROV-1
MOLT-4 = tested on: MOLT-4
HOP-62 = tested on: HOP-62
RPMI-8226 = tested on: RPMI-8226
DU-145 = tested on: DU-145
OVCAR-4 = tested on: OVCAR-4
M14 = tested on: M14
SNB-75 = tested on: SNB-75
SF-539 = tested on: SF-539
SK-OV-3 = tested on: SK-OV-3
T47D = tested on: T47D
Hs-578T = tested on: Hs-578T
MDA-MB-435 = tested on: MDA-MB-435
A498 = tested on: A498
MDA-MB-231 = tested on: MDA-MB-231
LOX IMVI = tested on: LOX IMVI

Clc1ccccc1C(SCc1ccccc1)SCc1ccccc1
GI50 (SF-295): > 100 µM (inactive)
GI50 (TK-10): > 100 µM (inactive)
GI50 (KM12): 93.8 µM (inactive)
GI50 (786-0): > 100 µM (inactive)
GI50 (SK-MEL-5): > 100 µM (inactive)
GI50 (MDA-N): > 100 µM (inactive)
GI50 (EKVX): 39.6 µM (inactive)
GI50 (SW-620): > 100 µM (inactive)
GI50 (HCT-116): > 100 µM (inactive)
GI50 (NCI-H23): > 100 µM (inactive)
GI50 (U-251): > 100 µM (inactive)
GI50 (NCI-H226): > 100 µM (inactive)
GI50 (SNB-19): > 100 µM (inactive)
GI50 (HL-60): 64.7 µM (inactive)
GI50 (OVCAR-3): > 100 µM (inactive)
GI50 (HCT-15): 75.2 µM
GI50 (COLO 205): > 100 µM (inactive)
GI50 (OVCAR-5): > 100 µM (inactive)
GI50 (RXF 393): > 100 µM (inactive)
GI50 (NCI-H522): > 100 µM (inactive)
GI50 (PC-3): > 100 µM (inactive)
GI50 (NCI/ADR-RES): > 100 µM (inactive)
GI50 (UACC-257): > 100 µM (inactive)
GI50 (A549): > 100 µM (inactive)
GI50 (HCC 2998): > 100 µM (inactive)
GI50 (HOP-92): > 100 µM (inactive)
GI50 (Malme-3M): > 100 µM (inactive)
GI50 (UACC-62): 94.4 µM (inactive)
GI50 (SK-MEL-28): > 100 µM (inactive)
GI50 (SK-MEL-2): > 100 µM (inactive)
GI50 (CCRF-CEM): > 100 µM (inactive)
GI50 (OVCAR-8): > 100 µM (inactive)
GI50 (ACHN): > 100 µM (inactive)
GI50 (MCF7): > 100 µM (inactive)
GI50 (SN12C): > 100 µM (inactive)
GI50 (NCI-H460): > 100 µM (inactive)
GI50 (K562): > 100 µM (inactive)
GI50 (BT-549): > 100 µM (inactive)
GI50 (UO-31): > 100 µM (inactive)
GI50 (HT-29): > 100 µM (inactive)
GI50 (CAKI-1): > 100 µM (inactive)
GI50 (SR): > 100 µM (inactive)
GI50 (SF-268): > 100 µM (inactive)
GI50 (IGROV-1): > 100 µM (inactive)
GI50 (MOLT-4): > 100 µM (inactive)
GI50 (HOP-62): > 100 µM (inactive)
GI50 (RPMI-8226): > 100 µM (inactive)
GI50 (DU-145): > 100 µM (inactive)
GI50 (OVCAR-4): > 100 µM (inactive)
GI50 (M14): > 100 µM (inactive)
GI50 (SNB-75): 41.8 µM (inactive)
GI50 (SF-539): > 100 µM (inactive)

C=CCCC(=O)N1CCC(C(=O)OCC)C1=O (stereo not drawn)
GI50 (SF-295): > 100 µM (inactive)
GI50 (SK-OV-3): > 100 µM (inactive)
GI50 (TK-10): > 100 µM (inactive)
GI50 (KM12): > 100 µM (inactive)
GI50 (786-0): > 100 µM (inactive)
GI50 (SK-MEL-5): > 100 µM (inactive)
GI50 (EKVX): > 100 µM (inactive)
GI50 (SW-620): > 100 µM (inactive)
GI50 (HCT-116): > 100 µM (inactive)
GI50 (NCI-H23): > 100 µM (inactive)
GI50 (U-251): > 100 µM (inactive)
GI50 (NCI-H226): 90.8 µM (inactive)
GI50 (SNB-19): > 100 µM (inactive)
GI50 (HL-60): > 100 µM (inactive)
GI50 (HCT-15): > 100 µM
GI50 (T47D): > 100 µM (inactive)
GI50 (COLO 205): > 100 µM (inactive)
GI50 (Hs-578T): > 100 µM (inactive)
GI50 (MDA-MB-435): > 100 µM (inactive)
GI50 (OVCAR-5): > 100 µM (inactive)
GI50 (RXF 393): > 100 µM (inactive)
GI50 (A498): > 100 µM (inactive)
GI50 (NCI-H522): > 100 µM (inactive)
GI50 (PC-3): > 100 µM (inactive)
GI50 (NCI/ADR-RES): > 100 µM (inactive)
GI50 (UACC-257): > 100 µM (inactive)
GI50 (A549): > 100 µM (inactive)
GI50 (Malme-3M): > 100 µM (inactive)
GI50 (UACC-62): > 100 µM (inactive)
GI50 (SK-MEL-28): > 100 µM (inactive)
GI50 (SK-MEL-2): > 100 µM (inactive)
GI50 (CCRF-CEM): > 100 µM (inactive)
GI50 (OVCAR-8): > 100 µM (inactive)
GI50 (ACHN): > 100 µM (inactive)
GI50 (SN12C): > 100 µM (inactive)
GI50 (MDA-MB-231): > 100 µM (inactive)
GI50 (BT-549): > 100 µM (inactive)
GI50 (UO-31): > 100 µM (inactive)
GI50 (CAKI-1): > 100 µM (inactive)
GI50 (SF-268): > 100 µM (inactive)
GI50 (IGROV-1): > 100 µM (inactive)
GI50 (MOLT-4): > 100 µM (inactive)
GI50 (HOP-62): > 100 µM (inactive)
GI50 (DU-145): > 100 µM (inactive)
GI50 (OVCAR-4): > 100 µM (inactive)
GI50 (M14): > 100 µM (inactive)
GI50 (SNB-75): > 100 µM (inactive)
GI50 (LOX IMVI): > 100 µM (inactive)
GI50 (SF-539): > 100 µM (inactive)

FC(F)=C(c1ccc(-c2ccc(Cl)cc2)cc1)C(F)(F)F
GI50 (SF-295): 22.5 µM (inactive)
GI50 (SK-OV-3): 21 µM (inactive)
GI50 (TK-10): 15.8 µM (inactive)
GI50 (KM12): 19.3 µM (inactive)
GI50 (786-0): 19.8 µM (inactive)
GI50 (SK-MEL-5): 18.2 µM (inactive)
GI50 (EKVX): 19.7 µM (inactive)
GI50 (SW-620): 20 µM (inactive)
GI50 (HCT-116): 17.5 µM (inactive)
GI50 (NCI-H23): 17.5 µM (inactive)
GI50 (U-251): 16.7 µM (inactive)
GI50 (SNB-19): 19.3 µM (inactive)
GI50 (HL-60): 45.3 µM (inactive)
GI50 (HCT-15): 20.4 µM
GI50 (T47D): 28.2 µM (inactive)
GI50 (COLO 205): 17.9 µM (inactive)
GI50 (Hs-578T): 26.1 µM (inactive)
GI50 (MDA-MB-435): 20.2 µM (inactive)
GI50 (OVCAR-5): 17.5 µM (inactive)
GI50 (RXF 393): 20.6 µM (inactive)
GI50 (A498): 16.8 µM (inactive)
GI50 (NCI-H522): 20.3 µM (inactive)
GI50 (PC-3): 17.3 µM (inactive)
GI50 (NCI/ADR-RES): 26.1 µM (inactive)
GI50 (UACC-257): 20 µM (inactive)
GI50 (A549): 17.9 µM (inactive)
GI50 (HOP-92): 15.1 µM (inactive)
GI50 (Malme-3M): 17.2 µM (inactive)
GI50 (UACC-62): 19 µM (inactive)
GI50 (SK-MEL-28): 12.4 µM (inactive)
GI50 (SK-MEL-2): 23.7 µM (inactive)
GI50 (CCRF-CEM): 26.8 µM (inactive)
GI50 (OVCAR-8): 24.3 µM (inactive)
GI50 (ACHN): 17.3 µM (inactive)
GI50 (SN12C): 20.3 µM (inactive)
GI50 (MDA-MB-231): 17.7 µM (inactive)
GI50 (NCI-H460): 17.7 µM (inactive)
GI50 (K562): 26.2 µM (inactive)
GI50 (BT-549): 18.2 µM (inactive)
GI50 (UO-31): 16.4 µM (inactive)
GI50 (HT-29): 25.6 µM (inactive)
GI50 (CAKI-1): 19.8 µM (inactive)
GI50 (SR): 23.3 µM (inactive)
GI50 (SF-268): 23.9 µM (inactive)
GI50 (IGROV-1): 17 µM (inactive)
GI50 (MOLT-4): 32.3 µM (inactive)
GI50 (RPMI-8226): 23.3 µM (inactive)
GI50 (DU-145): 18.7 µM (inactive)
GI50 (OVCAR-4): 18.5 µM (inactive)
GI50 (M14): 19.7 µM (inactive)
GI50 (SNB-75): 11 µM (inactive)
GI50 (SF-539): 20.7 µM (inactive)
